Results as given in PubChem BioAssay AID1963842 (Molecular Pharmacology Branch, DTP, NCI, 2024).

System: 677734-321-R-J1-PDC complex spheroid viability
Assay: Anticancer human tumor 677734-321-R-J1-PDC patient-derived soft tissue sarcoma cell line growth inhibition [POLQ]
Settings: for IC50: curve of first compound; for viability, T/C: stronger effect = lower value; active means viability on the fitted dose curve at most 10% of control; inactive means the rest
Method: Multicellular complex tumor spheroid response to Polymerase (POL) inhibitors (novobiocin, ART-558, RP6685) in combination with a variety of drugs and investigational agents in selected tumor cell lines
The POL inhibitors (novobiocin, ART-558, and RP6685) were evaluated both individually and in combination with standard of care and investigational anticancer small molecules within a complex spheroid model of solid tumors. . Complex spheroids include a stromal component modeled by human endothelial cells (HUVEC) and fibroblasts modeled by human mesenchymal stem cells (MSCs). The concentration ranges selected for each drug and investigational agent were based upon clinically achievable concentrations if the clinical Cmax of the agent was known.
Compounds. The drugs and investigational agents: novobiocin (NSC847541), ART-558 (NSC835418), RP-6685 (NSC848927), peposertib (NSC802822), ceralasertib (NSC780249), elimusertib (NSC800525), camonsertib (NSC841442), AZD-1390 (NSC803789), olaparib (NSC753686), talazoparib (NSC767125), rucaparib (NSC756644), sotorasib (NSC818433), MRTX-1133 (NSC836407), SN-38 (NSC673596), topotecan (NSC609699), epotoside (NSC141540), doxorubicin (NSC123127), gemcitabine (NSC613327), 5-fluorouracil (NSC19893), paclitaxel (NSC125973), vemurafenib (NSC761431), MSA-2 (NSC828583), SN-011 (NSC837082), adavosertib (NSC754352), prexasertib (NSC758257), carboplatin (NSC241240) and oxaliplatin (NSC266046), were obtained from the National Cancer Institute (NCI) Developmental Therapeutics Program Chemical Repository (21). The FDA-approved anticancer drug set is available from the Developmental Therapeutics Program at https://dtp.cancer.gov/organization/dscb/obtaining/. […] The stock solutions were prepared in dimethyl sulfoxide (DMSO, Sigma-Aldrich, St. Louis, MO, cat. D2650), except for the platinum compounds which were prepared in saline (Quality Biological, Gaithersburg, MD, cat. 114-055-101), at 800-fold the tested concentration and stored at -70 degrees C prior to their use. All drugs and investigational agents were tested over a range starting from a high concentration at or near the clinical Cmax and decreasing in half-log increments. If the clinical Cmax for an agent had not been determined, the highest concentration tested was 10 microM, except for SN-38, which was tested at a high concentration of 1 microM.
Cell Culture. All cells were maintained in an incubator at 37 degrees C and 5% CO2 with 95% humidity. The PDC lines were cultured according to standard operating procedures established by the NCI PDMR (https://pdmr.cancer.gov). Table 3 of the manuscript, lists the cell lines along with the number of the three cell types plated to form the mct-spheroids and media for tumor cell growth. After thawing, all PDC lines, except 997537-175-T-J1-PDC and 415267-285-R-J2-PDC, were cultured in Matrigel-coated flasks prepared with a working solution of 1X Ham's F-12 nutrient mix, without supplementation (Thermo Fisher Scientific, cat. 11765054), 100 U/mL penicillin-streptomycin (Thermo Fisher Scientific, cat. 15140122), and 2.5% Matrigel (Corning Inc., Corning, NY, cat. 354248) for the first three passages. The two PDC lines 997537-175-T-J1-PDC and 415267-285-R-J2-PDC were cultured on uncoated flasks. The 857933-349-R-J2-PDC line was cultured in 6C/Colon 1B media containing advanced DMEM/F-12 (Thermo Fisher Scientific, cat. 12634028), 10 mM HEPES (Thermo Fisher Scientific, cat. 15630080), 1X GlutaMAX supplement (Thermo Fisher Scientific, cat. 35050061), 0.1 mg/mL primocin (InvivoGen, San Diego, CA, cat. ant-pm-2), 10% defined fetal bovine serum, heat inactivated (HyClone Laboratories Inc., Logan, UT, cat. SH30070.03HI), 50% L-WRN conditioned media (ATCC, cat. CRL-3276), 1.25 mM N-Acetyl-L-cysteine (Sigma-Aldrich, cat. A9165), 10 mM nicotinamide (Sigma-Aldrich, cat. N0636), 1X B-27 supplement (Thermo Fisher Scientific, cat. 17504044), 1X N-2 supplement (Thermo Fisher Scientific, cat. […]

[1] = second compound 0.0316 µM, first compound 0.0316 µM
[2] = second compound 0.0316 µM, first compound 0.1 µM
[3] = second compound 0.0316 µM, first compound 0.316 µM
[4] = second compound 0.0316 µM, first compound 1 µM
[5] = second compound 0.0316 µM, first compound 3.16 µM
[6] = second compound 0.0316 µM, first compound 10 µM
[7] = second compound 0.1 µM, first compound 0.0316 µM
[8] = second compound 0.1 µM, first compound 0.1 µM
[9] = second compound 0.1 µM, first compound 0.316 µM
[10] = second compound 0.1 µM, first compound 1 µM
[11] = second compound 0.1 µM, first compound 3.16 µM
[12] = second compound 0.1 µM, first compound 10 µM
[13] = second compound 0.316 µM, first compound 0.0316 µM
[14] = second compound 0.316 µM, first compound 0.1 µM
[15] = second compound 0.316 µM, first compound 0.316 µM
[16] = second compound 0.316 µM, first compound 1 µM
[17] = second compound 0.316 µM, first compound 3.16 µM
[18] = second compound 0.316 µM, first compound 10 µM
[19] = second compound 1 µM, first compound 0.0316 µM
[20] = second compound 1 µM, first compound 0.1 µM
[21] = second compound 1 µM, first compound 0.316 µM
[22] = second compound 1 µM, first compound 1 µM
[23] = second compound 1 µM, first compound 3.16 µM
[24] = second compound 1 µM, first compound 10 µM
[25] = second compound 3.16 µM, first compound 0.0316 µM
[26] = second compound 3.16 µM, first compound 0.1 µM
[27] = second compound 3.16 µM, first compound 0.316 µM
[28] = second compound 3.16 µM, first compound 1 µM
[29] = second compound 3.16 µM, first compound 3.16 µM
[30] = second compound 3.16 µM, first compound 10 µM
[31] = second compound 10 µM, first compound 0.0316 µM
[32] = second compound 10 µM, first compound 0.1 µM
[33] = second compound 10 µM, first compound 0.316 µM
[34] = second compound 10 µM, first compound 1 µM
[35] = second compound 10 µM, first compound 3.16 µM
[36] = second compound 10 µM, first compound 10 µM
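Further: spheroids exposed to compounds for one week.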
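Wherever viability, T/C is given: 100% = vehicle DMSO treated spheroids.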

CC(=O)O[C@H]1C(=O)[C@@]2(C)[C@H]([C@H](OC(=O)c3ccccc3)[C@]3(O)C[C@H](OC(=O)[C@H](O)[C@@H](NC(=O)c4ccccc4)c4ccccc4)C(C)=C1C3(C)C)[C@]1(OC(C)=O)CO[C@@H]1C[C@@H]2O + COC1C(OC(N)=O)C(O)C(Oc2ccc3c(O)c(NC(=O)c4ccc(O)c(CC=C(C)C)c4)c(=O)oc3c2C)OC1(C)C
inactive: viability, T/C (second compound 0.0316 µM, first compound 0.00949 µM) 44.6% | viability, T/C (second compound 0.0316 µM, first compound 0.03 µM) 22.1% | viability, T/C (second compound 0.0316 µM, first compound 0.0949 µM) 16.2% | viability, T/C (second compound 0.0316 µM, first compound 0.3 µM) 16.4% | viability, T/C (second compound 0.0316 µM, first compound 0.949 µM) 13.5% | viability, T/C (second compound 0.0316 µM, first compound 3 µM) 19.1% | viability, T/C (second compound 0.1 µM, first compound 0.00949 µM) 41.2% | viability, T/C (second compound 0.1 µM, first compound 0.03 µM) 23.5% | viability, T/C (second compound 0.1 µM, first compound 0.0949 µM) 20.2% | viability, T/C (second compound 0.1 µM, first compound 0.3 µM) 14.9% | viability, T/C (second compound 0.1 µM, first compound 0.949 µM) 13.6% | viability, T/C (second compound 0.1 µM, first compound 3 µM) 17.5% | viability, T/C (second compound 0.316 µM, first compound 0.00949 µM) 36.8% | viability, T/C (second compound 0.316 µM, first compound 0.03 µM) 21.3% | viability, T/C (second compound 0.316 µM, first compound 0.0949 µM) 16.8% | viability, T/C (second compound 0.316 µM, first compound 0.3 µM) 11.9% | viability, T/C (second compound 0.316 µM, first compound 0.949 µM) 13.9% | viability, T/C (second compound 0.316 µM, first compound 3 µM) 16.9% | viability, T/C (second compound 1 µM, first compound 0.00949 µM) 37.8% | viability, T/C (second compound 1 µM, first compound 0.03 µM) 22.4% | viability, T/C (second compound 1 µM, first compound 0.0949 µM) 17.8% | viability, T/C (second compound 1 µM, first compound 0.3 µM) 15.2% | viability, T/C (second compound 1 µM, first compound 0.949 µM) 14% | viability, T/C (second compound 1 µM, first compound 3 µM) 18% | viability, T/C (second compound 3.16 µM, first compound 0.00949 µM) 37.8% | viability, T/C (second compound 3.16 µM, first compound 0.03 µM) 21.1% | viability, T/C (second compound 3.16 µM, first compound 0.0949 µM) 16.2% | viability, T/C (second compound 3.16 µM, first compound 0.3 µM) 15.4% | viability, T/C (second compound 3.16 µM, first compound 0.949 µM) 13.5% | viability, T/C (second compound 3.16 µM, first compound 3 µM) 17.7% | viability, T/C (second compound 10 µM, first compound 0.00949 µM) 45.5% | viability, T/C (second compound 10 µM, first compound 0.03 µM) 23.1% | viability, T/C (second compound 10 µM, first compound 0.0949 µM) 16.2% | viability, T/C (second compound 10 µM, first compound 0.3 µM) 13.2% | viability, T/C (second compound 10 µM, first compound 0.949 µM) 14.3% | viability, T/C (second compound 10 µM, first compound 3 µM) 16.5%
< 9.49 nM: IC50 (second compound 0.0316 µM) | IC50 (second compound 0.1 µM) | IC50 (second compound 0.316 µM) | IC50 (second compound 1 µM) | IC50 (second compound 3.16 µM) | IC50 (second compound 10 µM)

COc1cc(C2c3cc4c(cc3C(OC3OC5COC(C)OC5C(O)C3O)C3COC(=O)C23)OCO4)cc(OC)c1O (stereo unspecified) + COC1C(OC(N)=O)C(O)C(Oc2ccc3c(O)c(NC(=O)c4ccc(O)c(CC=C(C)C)c4)c(=O)oc3c2C)OC1(C)C
732 nM: IC50 (second compound 0.1 µM)
704 nM: IC50 (second compound 10 µM)
667 nM: IC50 (second compound 1 µM)
938 nM: IC50 (second compound 0.316 µM)
inactive: viability, T/C [1] 107% | viability, T/C [2] 91.5% | viability, T/C [3] 59.5% | viability, T/C [4] 47.8% | viability, T/C [5] 23.8% | viability, T/C [6] 11.1% | viability, T/C [7] 105% | viability, T/C [8] 94.7% | viability, T/C [9] 55% | viability, T/C [10] 47.2% | viability, T/C [11] 30.2% | viability, T/C [12] 10.7% | viability, T/C [13] 100% | viability, T/C [14] 93.8% | viability, T/C [15] 70.8% | viability, T/C [16] 51.3% | viability, T/C [17] 23.9% | viability, T/C [18] 12% | viability, T/C [19] 111% | viability, T/C [20] 87.2% | viability, T/C [21] 60.4% | viability, T/C [22] 45.3% | viability, T/C [23] 24.3% | viability, T/C [25] 111% | viability, T/C [26] 93.6% | viability, T/C [27] 62.6% | viability, T/C [28] 54.9% | viability, T/C [29] 20.4% | viability, T/C [31] 110% | viability, T/C [32] 98.2% | viability, T/C [33] 58.2% | viability, T/C [34] 47.6% | viability, T/C [35] 23.7% | viability, T/C [36] 11%
711 nM: IC50 (second compound 0.0316 µM)
active: viability, T/C [24] 9.55% | viability, T/C [30] 9%
843 nM: IC50 (second compound 3.16 µM)

COc1cccc2c1C(=O)c1c(O)c3c(c(O)c1C2=O)CC(O)(C(=O)CO)CC3OC1CC(N)C(O)C(C)O1 (stereo unspecified) + COC1C(OC(N)=O)C(O)C(Oc2ccc3c(O)c(NC(=O)c4ccc(O)c(CC=C(C)C)c4)c(=O)oc3c2C)OC1(C)C
inactive: viability, T/C [1] 84.4% | viability, T/C [2] 51.5% | viability, T/C [7] 77.6% | viability, T/C [8] 66.7% | viability, T/C [13] 60.4% | viability, T/C [14] 67% | viability, T/C [19] 83.5% | viability, T/C [20] 70.1% | viability, T/C [21] 11.2% | viability, T/C [25] 74.5% | viability, T/C [26] 62.4% | viability, T/C [31] 68.8% | viability, T/C [32] 67.1%
133 nM: IC50 (second compound 0.316 µM)
active: viability, T/C [3] 7.79% | viability, T/C [4] 3.03% | viability, T/C [5] 2.77% | viability, T/C [6] 2.45% | viability, T/C [9] 7.11% | viability, T/C [10] 0.57% | viability, T/C [11] 1.78% | viability, T/C [12] 3.77% | viability, T/C [15] 7.66% | viability, T/C [16] 0.61% | viability, T/C [17] 2.67% | viability, T/C [18] 3.36% | viability, T/C [22] 0.59% | viability, T/C [23] 1.98% | viability, T/C [24] 2.55% | viability, T/C [27] 8.7% | viability, T/C [28] 0.64% | viability, T/C [29] 2.76% | viability, T/C [30] 2.4% | viability, T/C [33] 7.17% | viability, T/C [34] 0.88% | viability, T/C [35] 3.28% | viability, T/C [36] 1.86%
138 nM: IC50 (second compound 0.1 µM)
148 nM: IC50 (second compound 1 µM)
139 nM: IC50 (second compound 10 µM)
104 nM: IC50 (second compound 0.0316 µM)
130 nM: IC50 (second compound 3.16 µM)
